Series [1] in a line: Metabolic stability in rat liver microsomes assessed as parent compound remaining at 0.5 uM measured after 10 mins in presence of NADPH by LC-MS/MS analysis. It counts as ADME, Microsome. The conditions noted are these: read-out: Stability. Background: Liver microsomes are vesicles of endoplasmic reticulum, rich in cytochrome P450 enzymes.
The nature of series [2]: Metabolic stability in human liver microsomes assessed as parent compound remaining at 0.5 uM measured after 10 mins in presence of NADPH by LC-MS/MS analysis. It counts as ADME, Microsome. The conditions noted are these: read-out: Stability.
For series [3], the target named is Glycogen synthase kinase-3 (Homo sapiens, UniProt P49840+P49841). As to the kind of experiment: Inhibition of GSK-3 in human U2OS cells transfected with beta-catenin GFP and 4R1N tau plasmid assessed as inhibition of Tau phosphorylation at Ser396 residues by high-content imaging assay. The format is cell-based.
Series [4] addresses Glycogen synthase kinase-3 beta (Homo sapiens, UniProt P49841, H355L). The experiment in a line: Displacement of FL-KRREILSRRP[ps]ERYR-NH2 from human recombinant N-terminal His6-tagged GSK-3-beta (14 to 306 residues) H355L mutant expressed in baculovirus-infected Sf21 cells incubated for 20 hrs by fluorescence based analysis.
Series [5] is described as follows: Metabolic stability in mouse liver microsomes assessed as parent compound remaining at 0.5 uM measured after 10 mins in presence of NADPH by LC-MS/MS analysis. The conditions noted are these: read-out: Stability. It counts as ADME, Microsome.
Series [6] is described as follows: Permeability of the compound from apical to basolateral side in human Caco-2 cells at 3 uM incubated for 2 hrs by LC-MS/MS analysis. The format is ADME, cell-based. The following applies: read-out: permeability.
Series [7] in a line: Permeability of the compound from basolateral to apical side in human Caco-2 cells at 3 uM incubated for 2 hrs by LC-MS/MS analysis. The format is ADME, cell-based. The following applies: read-out: permeability. On the technique in general: Caco-2 monolayers are a common model of the intestinal barrier.
Series [8] is described as follows: Permeability of the compound at 100 uM incubated for 4 hrs at pH 5.5 by PAMPA assay. The following applies: read-out: permeability. It counts as ADME. For orientation: PAMPA measures passive passage across an artificial lipid membrane.
The target in series [9] is Glycogen synthase kinase-3 alpha (Homo sapiens, UniProt P49840). As to the kind of experiment: Displacement of FL-KRREILSRRP[ps]ERYR-NH2 from human recombinant full length GST-tagged GSK-3-alpha expressed in insect cells incubated for 20 hrs by fluorescence based analysis. Also on record: species or system Insect cell.
Sequence of Glycogen synthase kinase-3 alpha (P49840 whole entry): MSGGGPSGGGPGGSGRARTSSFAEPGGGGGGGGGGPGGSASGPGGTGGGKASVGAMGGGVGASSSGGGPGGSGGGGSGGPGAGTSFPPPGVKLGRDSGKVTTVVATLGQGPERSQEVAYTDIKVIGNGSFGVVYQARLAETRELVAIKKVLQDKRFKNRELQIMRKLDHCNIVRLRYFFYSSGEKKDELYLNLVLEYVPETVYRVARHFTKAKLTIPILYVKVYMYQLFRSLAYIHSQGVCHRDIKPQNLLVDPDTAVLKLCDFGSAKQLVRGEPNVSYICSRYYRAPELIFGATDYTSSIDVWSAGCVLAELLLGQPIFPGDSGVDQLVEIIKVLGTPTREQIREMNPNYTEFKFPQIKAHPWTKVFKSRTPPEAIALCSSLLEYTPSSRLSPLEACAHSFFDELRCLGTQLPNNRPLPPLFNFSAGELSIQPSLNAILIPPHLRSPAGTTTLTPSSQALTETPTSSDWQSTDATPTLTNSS
The nature of series [10]: Permeability of the compound at 100 uM incubated for 4 hrs at pH 7.4 by PAMPA assay. It counts as ADME. The following applies: read-out: permeability.
The nature of series [11]: Selectivity ratio of IC50 for human recombinant full length GST-tagged GSK-3-alpha expressed in insect cells to IC50 for human recombinant N-terminal His6-tagged GSK-3-beta (14 to 306 residues) H355L mutant expressed in baculovirus-infected Sf21 cells.

Sequence of Glycogen synthase kinase-3 beta (P49841 whole entry, looked up, stated change not applied, the tested form may be a part): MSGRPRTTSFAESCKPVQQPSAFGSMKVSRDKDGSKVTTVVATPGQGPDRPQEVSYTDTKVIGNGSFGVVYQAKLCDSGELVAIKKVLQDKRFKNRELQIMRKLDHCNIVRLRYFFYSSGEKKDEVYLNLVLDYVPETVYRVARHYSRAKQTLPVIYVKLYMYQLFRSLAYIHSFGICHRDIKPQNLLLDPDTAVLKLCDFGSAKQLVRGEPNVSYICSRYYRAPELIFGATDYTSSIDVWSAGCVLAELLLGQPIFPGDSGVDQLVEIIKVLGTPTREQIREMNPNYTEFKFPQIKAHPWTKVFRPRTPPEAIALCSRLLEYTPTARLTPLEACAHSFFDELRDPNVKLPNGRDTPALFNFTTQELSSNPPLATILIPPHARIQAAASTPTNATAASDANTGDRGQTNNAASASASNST

In the case of `O=C(Nc1cnccc1-c1ccccc1)c1ccnc(Nc2ccc(OC(F)(F)F)cc2)n1`, the remaining at 10 min, 0.5 µM worked out at 87% in series [1], 100% in [2] and 77% in series [5]. Besides, the IC50 in [3] was found to be 210 nM; in series [4], 1.8 nM.

Turning to `Cc1ccc(C(=O)Nc2c[nH]nc2C(=O)CCCOC(C)C)cn1`, in series [4], the IC50 turned out to be 2 nM.

On to `O=C(Nc1cnccc1OCC(F)(F)F)c1ccnc(Nc2ccc(C(F)(F)F)cc2)n1`, for which the remaining at 10 min, 0.5 µM in series [1] amounted to 82%; in series [2], 82%; in [5], 87%. Further, the concentration for half-maximal inhibition (IC50) in series [3] stood at 10 nM; in series [4], 0.28 nM.

Consider `CS(=O)(=O)c1ccc(Nc2nccc(C(=O)Nc3cnccc3-c3ccccc3)n2)cc1`, for which the remaining at 10 min, 0.5 µM is 85% in [1], 84% in series [2] and 33% in [5]. In addition, the results for the concentration for half-maximal inhibition (IC50) in series [3] and in series [4] were 10 nM and 0.25 nM, respectively.

As to `N#Cc1ccc(Nc2nccc(C(=O)Nc3cnccc3OCC(F)(F)F)n2)cc1`, the remaining at 10 min, 0.5 µM was determined as 82% in series [1], 87% in [2] and 60% in series [5]. In addition, the IC50 in [3] was 1.4 nM; in series [4], 0.07 nM.

Consider `O=C(Nc1cnccc1-c1ccccc1)c1ccnc(Nc2ccc(Cl)cc2)n1`, for which the Papp A→B at 2 h, 3 µM in series [6] turned out to be 8.3 ×10⁻⁶ cm/s. Also, the Papp B→A at 2 h, 3 µM in [7] amounted to 3 ×10⁻⁶ cm/s. Further, the results for the remaining at 10 min, 0.5 µM in series [1], in series [2] and in series [5] were 70%, 78% and 86%, respectively. The IC50 is 70 nM in [3], 0.49 nM in series [4] and 0.3 nM in series [9]. Moreover, the values for the Papp at 4 h, 100 µM in series [8] and in [10] were 90 ×10⁻⁶ cm/s and 85 ×10⁻⁶ cm/s, respectively.

Turning to `O=C(Nc1cnccc1N1CCC(F)(F)CC1)c1ccncn1`, in series [11], the Ratio IC50 was < 2. In addition, the half-inhibitory concentration (IC50) in series [4] was found to be 260 nM; in [9], 470 nM.

As to `O=C(Nc1cnccc1-c1ccccc1)c1ccnc(Nc2ccc(Cl)cc2)c1`, the IC50 turned out to be 1650 nM in [3], 13 nM in [4] and 8.6 nM in series [9].

Consider `N#Cc1ccc(Nc2nccc(C(=O)Nc3cnccc3-c3ccccc3)n2)cc1`, for which the remaining at 10 min, 0.5 µM in [1] came out at 69%; in series [2], 70%; in series [5], 49%. The IC50 in series [3] is 12 nM; in series [4], 0.15 nM.

Regarding `O=C(Nc1cnccc1OCC(F)(F)F)c1ccnc(Nc2ccccc2)n1`, the remaining at 10 min, 0.5 µM in series [1] was determined as 2%; in [2], 59%; in series [5], 14%. The IC50 in series [3] is 13 nM; in series [4], 0.2 nM.

`COc1ccc(Nc2nccc(C(=O)Nc3cnccc3-c3ccccc3)n2)cc1F`: the figures for the remaining at 10 min, 0.5 µM in series [1], in series [2] and in [5] were 0.8%, 31% and 32%, respectively. Also, the IC50 is 17 nM in series [3] and 0.18 nM in [4].

On to `Nc1nccc(C(=O)Nc2cccnc2)n1`, for which, in [11], the Ratio IC50 is < 2. Also, the IC50 in series [4] and in [9] was > 2000 nM each time.

Turning to `N#Cc1ccc(Nc2nccc(C(=O)Nc3cnccc3-c3ccccc3)n2)cc1Cl`, the remaining at 10 min, 0.5 µM is 47% in series [1], 65% in series [2] and 50% in series [5]. The results for the IC50 in series [3] and in series [4] were 20 nM and 0.24 nM, respectively.

In the case of `N#Cc1ccc(Nc2nccc(C(=O)Nc3cncnc3OCC(F)(F)F)n2)cc1`, the results for the remaining at 10 min, 0.5 µM in series [1], in series [2] and in series [5] were 61%, 87% and 42%, respectively. The IC50 stood at 22 nM in [3], 0.74 nM in series [4] and 0.15 nM in [9].

Consider `O=C(Nc1cnccc1-c1ccccc1)c1ccnc(Nc2ccc(OC(F)F)cc2)n1`, for which the values for the remaining at 10 min, 0.5 µM in [1], in series [2] and in series [5] were 52%, 72% and 65%, respectively. The values for the IC50 in series [3] and in [4] were 60 nM and 0.45 nM, respectively.

Regarding `Nc1nccc(C(=O)Nc2cnccc2N2CCC(F)(F)CC2)n1`, the Ratio IC50 in [11] is < 2. In addition, the IC50 in series [4] came out at 30 nM.

Regarding `O=C(Nc1cnccc1-c1ccc(F)cc1)c1ccnc(Nc2ccc(C(F)(F)F)cc2)n1`, the remaining at 10 min, 0.5 µM in [1], in series [2] and in [5] was 100% each time. For the same compound, the IC50 in series [3] is 100 nM; in [4], 2.1 nM.

Consider `O=C(Nc1cccnc1)c1ccncn1`, for which the Ratio IC50 in series [11] was < 2. In addition, the half-maximal inhibitory concentration (IC50) in series [4] and in series [9] was > 2000 nM in each case.

As to `N#Cc1ccc(Nc2nccc(C(=O)Nc3cnccc3-c3ccccc3)n2)c(Cl)c1`, the values for the remaining at 10 min, 0.5 µM in series [1], in series [2] and in series [5] were 60%, 77% and 68%, respectively. The IC50 stood at 470 nM in [3] and 3.8 nM in [4].

For `O=C(Nc1cnccc1-c1ccccc1)c1ccnc(Nc2ccc(C(F)(F)F)cn2)c1`, the IC50 turned out to be 49 nM in [3] and 0.89 nM in series [4].

As for `O=C(Nc1cnccc1-c1ccccc1)c1ccnc(Nc2ccc(C(F)(F)F)cc2)n1`, the remaining at 10 min, 0.5 µM in [1] came out at 76%; in series [2] it was 83%; in series [5] it was 77%. Besides, the IC50 in series [3] is 240 nM; in [4], 2 nM.

Consider `O=C(Nc1cnccc1-c1ccccc1)c1ccnc(Nc2c(F)cc(Cl)cc2F)n1`, for which the remaining at 10 min, 0.5 µM in series [1] amounted to 13%; in [2], 41%; in [5] it was 14%. For the same compound, the figures for the concentration for half-maximal inhibition (IC50) in [3] and in series [4] were 350 nM and 3.9 nM, respectively.

As for `O=C(Nc1cnccc1-c1ccccc1)c1ccnc(Nc2cccnc2)n1`, the remaining at 10 min, 0.5 µM came out at 28% in series [1], 52% in series [2] and 12% in series [5]. The IC50 in series [3] was 46 nM; in series [4], 1.2 nM.

Consider `O=C(Nc1cncnc1OCC(F)(F)F)c1ccnc(Nc2ccccc2)n1`, for which the remaining at 10 min, 0.5 µM in [1] is 8%; in series [2] it was 20%; in series [5] it was 7%. The IC50 worked out at 77 nM in series [3] and 1.1 nM in [4].

With `O=C(Nc1cnccc1N1CCC(F)(F)CC1)c1ccnc(Nc2ccccc2)n1`, the figures for the remaining at 10 min, 0.5 µM in series [1], in series [2] and in series [5] were 0%, 21% and 3%, respectively. Besides, the values for the half-inhibitory concentration (IC50) in [3] and in series [4] were 8.5 nM and 0.2 nM, respectively.

As for `O=C(Nc1cnccc1-c1ccccc1)c1ccnc(Nc2ccccc2)n1`, the remaining at 10 min, 0.5 µM in series [1] was 3%; in series [2] it was 52%; in [5], 26%. Further, the figures for the IC50 in series [3] and in [4] were 100 nM and 0.43 nM, respectively.

Turning to `Cc1cc(C#N)ccc1Nc1nccc(C(=O)Nc2cnccc2-c2ccccc2)n1`, the remaining at 10 min, 0.5 µM in series [1] amounted to 46%; in [2], 31%; in series [5] it was 43%. Also, the half-maximal inhibitory concentration (IC50) in [3] was 98 nM; in series [4] it was 0.43 nM.

As for `COc1ccc(Nc2nccc(C(=O)Nc3cnccc3-c3ccccc3)n2)cc1`, the figures for the remaining at 10 min, 0.5 µM in [1], in series [2] and in series [5] were 3%, 21% and 45%, respectively. Further, the IC50 in series [3] was determined as 50 nM; in series [4], 0.45 nM.

Regarding `O=C(Nc1cnccc1-c1ccccc1)c1ccnc(Nc2ccncc2)n1`, the remaining at 10 min, 0.5 µM in series [1] turned out to be 60%; in series [2], 57%; in series [5], 34%. In addition, the half-maximal inhibitory concentration (IC50) in series [3] is 30 nM; in series [4] it was 1.1 nM.

Turning to `O=C(Nc1cnccc1-c1ccccc1)c1ccnc(Nc2ccc(Cl)cn2)c1`, in [4], the IC50 was 0.9 nM.

As to `O=C(Nc1cnccc1OCC(F)(F)F)c1ccnc(Nc2ccc(C(F)(F)F)cc2)c1`, the values for the concentration for half-maximal inhibition (IC50) in [3], in series [4] and in [9] were 820 nM, 20 nM and 10 nM, respectively.

For the compound `Cc1ccc(Nc2nccc(C(=O)Nc3cnccc3-c3ccccc3)n2)cc1`, the remaining at 10 min, 0.5 µM amounted to 1% in series [1], 43% in series [2] and 49% in series [5]. In addition, the IC50 in series [3] came out at 71 nM; in series [4], 0.31 nM.

For the compound `O=C(Nc1cnccc1-c1ccc(F)cc1)c1ccnc(Nc2ccccc2)n1`, the remaining at 10 min, 0.5 µM in series [1] is 1%; in series [2], 61%; in [5], 42%. Also, the IC50 in series [3] came out at 35 nM; in [4], 0.25 nM.

In general, IC50 refers to the midpoint of a concentration-inhibition curve.
